Measurements taken from patent publication US11564924B2, “Pharmaceutical composition formed by combining pyridoxamine compound and thiamine compound” (RENASCIENCE CO., LTD., priority 2014, dated 2023).

Tests used:
[1] = tested on: vitamin B1 in human whole blood; assay: In vitro effect on vitamin B1 concentration in human whole blood; details: human whole blood, 5, 50, 500 μg/mL, 37° C.
From the text: In addition, as described in Experiment Example 1 and Experiment Example 2, administration of a pyridoxamine compound increases not only the serum pyridoxamine concentration, but also the serum pyridoxal concentration, and thus, pyridoxamine and pyridoxal were both used as test substances for the investigation.
Blood was collected from a human using EDTA⋅2K as an anticoagulant. In addition, pyridoxamine dihydrochloride (Sigma-Aldrich Japan) was used as pyridoxamine, and pyridoxal hydrochloride (Nacalai Tesque, Inc.) was used as pyridoxal. They were dissolved at 0.5, 5, and 50 mg/mL in physiological saline to prepare test solutions. 10 μL of each test solution was individually added per mL of the whole blood collected above (test samples). The final concentrations of each test substance in the test samples were 5, 50, 500 μg/mL. Further, a vehicle was prepared by adding 10 μl of physiological saline to 1 ml of the whole blood. The vehicle and the test samples were incubated at 37° C. for 1 hour or 16 hours and then immediately frozen. Measurement of the vitamin B1 concentrations in the whole blood before the start of the incubation to which neither the physiological saline nor any test solution was added (baseline: indicated by “BL” in FIG. 4), and in the vehicle and in each test sample after the incubation, was outsourced to SRL Inc., and the measurement was performed using LC/MS/MS.

vitamin B1 = assay: Whole blood vitamin B1 amount in schizophrenia patients during drug administration (LC/MS/MS); type: in vivo, human
Protocol: Measurement of the amount of vitamin B1 in whole blood (blood collection with heparin) was outsourced to SRL Inc., and the measurement was performed using LC/MS/MS.

[2] = tested on: Wernicke's encephalopathy; assay: Wernicke's encephalopathy findings (MRI of the brain, symptoms) during drug administration; type: in vivo, human
Protocol: Immediately after the patient was suspected of having Wernicke's encephalopathy, oral administration of a thiamine compound (fursultiamine (Takeda Pharmaceutical Company Limited)) at a dose of 75 mg/day was initiated (administered once a day) and continued every day.
Immediately after the patient was suspected of having Wernicke's encephalopathy, intravenous administration of a thiamine compound (fursultiamine (Takeda Pharmaceutical Company Limited)) (300 mg/day) was performed, and then (from 10 weeks after the start of drug administration), oral administration of the thiamine compound at a dose of 100 to 50 mg/day was continued.

| Structure (SMILES) | change in whole blood vitamin B1 concentration ([1]; 1 hour incubation) | change in whole blood vitamin B1 concentration ([1]; 16 hours incubation) | whole blood vitamin B1 amount (vitamin B1; patient ID No. 3, 12 weeks after the start of drug administration (6 weeks after start of fursultiamine 75 mg/day oral), pyridoxamine compound continued) | whole blood vitamin B1 amount (vitamin B1; patient ID No. 6, 11 weeks after the start of drug administration (3 weeks after start of thiamine compound: 300 mg/day intravenous, then 100 to 50 mg/day oral)) | symptom of Wernicke's encephalopathy ([2]; patient ID No. 3, 14 weeks after the start of drug administration (8 weeks after the start of the thiamine compound, 75 mg/day oral)) | symptom of Wernicke's encephalopathy ([2]; patient ID No. 6, 11 weeks after the start of drug administration (3 weeks after the start of the thiamine compound)) |
| --- | --- | --- | --- | --- | --- | --- |
| Cc1ncc(CO)c(C=O)c1O.Cl [pyridoxal hydrochloride] | decrease in the vitamin B1 concentration in a manner dependent on the concentration of pyridoxal hydrochloride | decrease in the vitamin B1 concentration in a manner dependent on the concentration of pyridoxal hydrochloride | – | – | – | – |
| CC(=C(CCO)SSCC1CCCO1)N(C=O)Cc1cnc(C)nc1N (stereo in doubt) [fursultiamine] | – | – | 135 ng/mL | 150 ng/mL | disappeared | disappeared |
